# Patent publication US20260207759A1, “COMPOSITION OF CD40-BINDING MOLECULE AND PHARMACEUTICAL USE THEREOF” (SUZHOU SUNCADIA BIOPHARMACEUTICALS CO., LTD., priority 2022, published 2026)
# Assays:
# [1] = tested on: human CD40 transgenic mice; assay: Mouse skin graft rejection model (anti-CD40-ADC); type: in vivo; conditions: 10 mpk ip, budesonide 0.12 mg/kg QD, dexamethasone 20 mpk QD
# From the text: Male Balb/c mice, 6 weeks old, were purchased from the Laboratory Animal Management Department, Shanghai Institute of Planned Parenthood Research.
# (§1) On day −2 of the experiment, the mice were intraperitoneally injected with the CD40 antagonistic antibody, anti-CD40-ADC, or glucocorticoid. On day 0 of the experiment, donor Balb/c mice and C57BL6/J mice were anesthetized with 4% chloral hydrate. The tails of the donor mice were removed, and full circles of skin, 1 cm in length, were isolated from the tails. The hair on the acceptor mice's back was removed, and an incision was made along the skin layer. An equal area of skin was removed while preserving the back fat and connective tissue. The donor skin was placed on the acceptor mice's incision site, and the incision was closed with glue. The mice were then placed back in cages to recover.
# The mice were dosed according to the administration regimens in Table 27. After 7 days of recovery, the mouse skin survival was observed daily and rejection scores were recorded.
# [2] = tested on: human CD40 transgenic mice; assay: Mouse skin graft rejection model (antibodies, tacrolimus combination); type: in vivo; conditions: FK506 3 mpk, alone or combined
# From the text: Male Balb/c mice, 6 weeks old, were purchased from the Laboratory Animal Management Department, Shanghai Institute of Planned Parenthood Research. Housing environment: SPF; certification number: 20180006023393.
# as §1, with “On day-2” for “On day −2”, “with tacrolimus FK506 or” for “with the”, “antagonistic antibodies.” for “antagonistic antibody, anti-CD40-ADC, or glucocorticoid.”
# The mice were dosed according to the administration regimens in Table 16. After 7 days of recovery, the mouse skin survival was observed daily and rejection scores were recorded.
Structure (SMILES),"Skin graft survival rate (%), 10 days [1] [%]","Skin graft survival rate (%), 15 days [1] [%]","Skin graft survival rate (%), 20 days [1] [%]","Skin graft score, 10 days ([1]; score 3 to 0)","Skin graft score, 15 days ([1]; score 3 to 0)","Skin graft score, 20 days ([1]; score 3 to 0)",Day-15 skin graft survival rate (%) ([2]; Table 20: antibody 10 mpk),"Skin graft score, 8 days ([2]; Table 22: 2F12-L4H2 10 mpk)","Skin graft score, 10 days ([2]; Table 22: 2F12-L4H2 10 mpk)","Skin graft score, 15 days ([2]; Table 22: 2F12-L4H2 10 mpk)","Skin graft score, 20 days ([2]; Table 22: 2F12-L4H2 10 mpk)"
C[C@@H]1C[C@H]2[C@@H]3CCC4=CC(=O)C=C[C@]4(C)[C@@]3(F)[C@@H](O)C[C@]2(C)[C@@]1(O)C(=O)CO [Dexamethasone],88.9,88.9,66.7,2.33,2,1.56,,,,,
"C=CC[C@@H]1/C=C(\C)C[C@H](C)C[C@H](OC)[C@H]2O[C@@](O)(C(=O)C(=O)N3CCCC[C@H]3C(=O)O[C@H](/C(C)=C/[C@@H]3CC[C@@H](O)[C@H](OC)C3)[C@H](C)[C@@H](O)CC1=O)[C@H](C)C[C@@H]2OC [FK506, tacrolimus]",,,,,,,16.7,2.5,1.5,0.5,0
